Read-outs that look alike come from different tables or passages of the source. Some results are limits rather than exact numbers.

The conditions of data set [1]: cited from earlier work.
For data set [2] the following is noted: in vivo studies; cited from earlier work.
The test system of data set [3] is HEK-293 cells. The class given is cell-based, Human. Conditions: for toxicity enhanced: co-treatment with UV 365 nm and 40 °C; for more cell death after exposing herbicide to 40 °C for 2 h: herbicide at LD50, no UV, compared with 4 °C and RT groups, 24-h cell exposure; for change in cell viability: 2 h of 40 °C/UV 254 nm; for increased toxicity: vs no UV.
The format of data set [4] is cell-based, Human. Conditions: human, HEK-293 cells, relative cell viability, 4 °C/No UV = 100 %.
For data set [5] the following is noted: outdoor aquatic mesocosms, at 25 ng mL^−1; cited from earlier work.
Data set [6] relates to isolated rat hepatocytes. The conditions noted are these: rats and dogs, 100–200 μmole L-1 for 2–4 h; cited from earlier work.

The term half-life denotes the time needed for the level to fall by half in the phase considered. Consider `CCNc1nc(Cl)nc(NC(C)C)n1` [Atrazine, atrazine], for which the half-life entry in data set [1] (aerobic condition) is “about 150 days”; in data set [1] (anaerobic condition), “more than 2 years”; in data set [1] (in soil) it was “up to 6 months”.

In the case of `CC(C)Nc1nc(Cl)nc(NC(C)C)n1` [Propazine, propazine], in data set [2], the “LD50 (NIH TOXNET)” value is more than 5000 mg/kg.

The term viability denotes a read-out of living cells in per cent, often relative to untreated cells. On to `CCOCN(C(=O)CCl)c1c(C)cccc1CC` [Acetochlor, acetochlor], for which the toxicity enhanced in data set [3] is listed as 55%. Further, the “more cell death after exposing herbicide to 40 °C for 2 h” value in data set [3] was “about 45%”. For the same compound, the viability at 24 h in data set [4] (40 °C/No UV 2 h) turned out to be 56.6%; in data set [4] (40 °C/UV 254 nm 2 h) it was 163%; in data set [4] (40 °C/UV 365 nm 2 h), 45.1%.

`CCNc1nc(Cl)nc(NCC)n1` [Simazine, simazine]: the “LD50 (NIH TOXNET)” value in data set [2] was more than 5000 mg/kg.

`CCc1cccc(CC)c1N(COC)C(=O)CCl` [Alachlor, alachlor]: in data set [3], the “change in cell viability” value is recorded as “no further changes”. For the same compound, the toxicity enhanced in data set [3] stood at 80%. In addition, the “more cell death after exposing herbicide to 40 °C for 2 h” value in data set [3] was “about 45%”. For the same compound, the results for the increased toxicity in data set [3] (herbicide exposed to UV 254 nm 2 h at 4 °C) and in data set [3] (herbicide exposed to UV 365 nm 2 h at 4 °C) were 40% and 24%, respectively. For the same compound, the viability at 24 h in data set [4] (40 °C/No UV 2 h) came out at 54.1%; in data set [4] (40 °C/UV 254 nm 2 h), 87.9%; in data set [4] (40 °C/UV 365 nm 2 h), 19.2%. In addition, in data set [5], the half-life is recorded as 19.8 days.

With `CCc1cccc(C)c1N(C(=O)CCl)C(C)COC` (stereo not shown) [Metolachlor, metolachlor], in data set [3], the “change in cell viability” value is reported as “no further changes”. For the same compound, the “differences in cell viability responses between 4 °C, 23 °C and 40 °C groups” value in data set [3] (UV 254 nm and UV 365 nm for 2 h) is “no differences”. Further, the “temperature effect on herbicide-triggered cytotoxicity” value in data set [3] (herbicide at LD50 kept 2 h at 4, 23 or 40 °C, no UV, 4 °C group as control) is “no further effect”. Moreover, in data set [3] (no UV, UV 254 nm and UV 365 nm groups, 2 h at 4 °C), the “UV effect on cytotoxicity” value is on record as “no further change”. The half-life in data set [5] is 33.8 days. For the same compound, the hepatotoxicity result in data set [6] is reported as “not”.

The values above are taken from paper PMC8461356 (Heliyon, 2021).
